Test results from patent publication US12692254B2, “Benzimidazole inhibitors of PAD enzymes” (BRISTOL-MYERS SQUIBB COMPANY, priority 2018, dated 2026).

Target: human PAD4 (hPAD4) (Homo sapiens, UniProt Q9UM07)
Experiment: RFMS human PAD4 functional assay (rapid-fire mass spectrum)
Assay type: biochemical
Conditions: 5 nM hPAD4 enzyme, 250 μM BAEE, 50 μM Calcium; 30 min preincubation, 90 min reaction at 37° C.
How it was run: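 PAD4 (10 nM) preincubated 30 min with compound (top final 50 μM), then BAEE substrate added in pH 7.5 HEPES buffer with DTT, 50 μM calcium, TPEN; 90 min at 37° C. After TCA quench, citrulline derivatized with phenyl glyoxal (4 mM final, 30 min, 37° C) and quantified by RapidFire MS against internal standard.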

human PAD4 (hPAD4), sequence (Q9UM07 whole entry): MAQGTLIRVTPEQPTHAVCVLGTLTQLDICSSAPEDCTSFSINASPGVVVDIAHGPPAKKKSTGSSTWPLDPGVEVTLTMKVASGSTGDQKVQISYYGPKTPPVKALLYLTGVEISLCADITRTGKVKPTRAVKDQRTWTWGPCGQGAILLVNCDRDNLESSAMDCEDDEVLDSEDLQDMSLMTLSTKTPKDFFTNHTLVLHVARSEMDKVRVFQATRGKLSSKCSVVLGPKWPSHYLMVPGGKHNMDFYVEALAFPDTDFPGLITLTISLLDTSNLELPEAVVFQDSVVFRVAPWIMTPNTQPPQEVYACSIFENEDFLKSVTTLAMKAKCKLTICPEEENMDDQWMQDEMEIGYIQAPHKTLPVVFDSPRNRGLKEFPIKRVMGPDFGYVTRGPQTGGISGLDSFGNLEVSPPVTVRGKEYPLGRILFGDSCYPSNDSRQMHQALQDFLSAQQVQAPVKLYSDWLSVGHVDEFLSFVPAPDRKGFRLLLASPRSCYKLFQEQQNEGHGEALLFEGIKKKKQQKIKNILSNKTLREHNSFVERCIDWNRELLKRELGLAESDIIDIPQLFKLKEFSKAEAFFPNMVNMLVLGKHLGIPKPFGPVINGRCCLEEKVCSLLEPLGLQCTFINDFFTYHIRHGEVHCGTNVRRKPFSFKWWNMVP

IC50 | Structure (SMILES)
0.403 µM | COc1cc(C(=O)N2C[C@H]3CC[C@@H]2[C@@H]3N)cc2nc(-c3cc4cccnc4n3CC3CC3)n(C3CN(c4ncccn4)C3)c12 [Example 80, (1R,4R,7R)-2-{2-[1-(cyclopropylmethyl)-1H-pyrrolo[2,3-b]pyridin-2-yl]-7-methoxy-1-[1-(pyrimidin-2-yl)azetidin-3-yl]-1H-1,3-benzodiazole-5-carbonyl}-2-azabicyclo[2.2.1]heptan-7-amine]
0.043 µM | COc1cc(C(=O)N2CC3CCC2[C@@H]3N)cc2nc(-c3cc4ccccc4n3CC3CC3)n(Cc3cnn(-c4cccc(O)n4)c3)c12 (stereo partly drawn) [Example 388, 6-[4-({5-[(7R)-7-amino-2-azabicyclo[2.2.1]heptane-2-carbonyl]-2-[1-(cyclopropylmethyl)-1H-indol-2-yl]-7-methoxy-1H-1,3-benzodiazol-1-yl}methyl)-1H-pyrazol-1-yl]pyridin-2-ol]
0.884 µM | COc1cc(C(=O)N2C[C@H]3CC[C@@H]2[C@@H]3N)cc2nc(-c3cc4cccnc4n3CC3CC3)n(C3CN(C(C)=O)C3)c12 [Example 191, 1-(3-{5-[(1R,4R,7R)-7-amino-2-azabicyclo[2.2.1]heptane-2-carbonyl]-2-[1-(cyclopropylmethyl)-1H-pyrrolo[2,3-b]pyridin-2-yl]-7-methoxy-1H-1,3-benzodiazol-1-yl}azetidin-1-yl)ethan-1-one]
0.054 µM | COc1cc(C(=O)N2CC3CCC2[C@@H]3N)cc2nc(-c3cc4cccnc4n3CC3CC3)n(Cc3cnn(-c4ncccn4)c3)c12 (stereo partly drawn) [Example 398, (7R)-2-{2-[1-(cyclopropylmethyl)-1H-pyrrolo[2,3-b]pyridin-2-yl]-7-methoxy-1-{[1-(pyrimidin-2-yl)-1H-pyrazol-4-yl]methyl}-1H-1,3-benzodiazole-5-carbonyl}-2-azabicyclo[2.2.1]heptan-7-amine]
1.3 µM | COc1cc(C(=O)N2CC3CCC2[C@@H]3N)cc2nc(-c3cccn3C)n(CC3CN(c4ccnc(C#N)n4)C3)c12 (stereo partly drawn) [Example 318, 4-[3-({5-[(1R,4R,7R)-7-amino-2-azabicyclo[2.2.1]heptane-2-carbonyl]-7-methoxy-2-(1-methyl-1H-pyrrol-2-yl)-1H-1,3-benzodiazo1-1-yl)methyl)azetidin-1-yl]pyrimidine-2-carbonitrile]
2.99 µM | CCc1ccccc1-c1nc2cc(C(=O)N3CC4CCC3[C@@H]4N)cc(OC)c2n1CC1CN(c2cncc(C)c2)C1 (stereo partly drawn) [Example 323, (1R,4R,7R)-2-[2-(2-ethytphenyl)-7-methoxy-1-{[1-(5-methylpyridin-3-yl)azetidin-3-yl]methyl}-1H-1,3-benzodiazole-5-carbonyl]-2-azabicyclo[2.2.1]heptan-7-amine]
1.29 µM | COc1cc(C(=O)N2CC3CCC2[C@@H]3N)cc2nc(-c3cc4cccnc4n3CC3CC3)n(CCNC(C)=O)c12 (stereo partly drawn) [Example 289, N-(2-{5-[(1R,4R,7R)-7-amino-2-azabicyclo[2.2.1]heptane-2-carhonyl]-2-[1-(cyclopropylmethyl)-1H-pyrrolo[2,3-b]pyridin-2-yl]-7-methoxy-1H-1,3-benzodiazol-1-yl}ethyl)acetamide]
